Measured values: patent publication US20130273649A1, “Culture medium for pluripotent stem cells” (UNIVERSITY OF SOUTHERN CALIFORNIA, priority 2012, published 2013)

Tests used:
Format in all cases: cell-based
[1] = system: mouse EpiSCs; assay: Mouse EpiSC self-renewal culture; conditions: for EpiSC self-renewal / maintenance of undifferentiated state: CD1 mouse EpiSCs, GMEM/10% FBS, no FGF2/activin unless named, CHIR 3 μM, PD0325901 1 μM, XAV939 2 μM, IWR-1 2.5 μM, IWP-2 2.5 μM, Pyrvinium 100 nM
Description: We therefore reasoned that if CHIR induces EpiSC differentiation through stabilization of β-catenin, de-stabilization of β-catenin might promote EpiSC self-renewal. We tested this hypothesis by administering the tankyrase inhibitor XAV939 to mouse EpiSC cultures. XAV939-mediated inhibition of tankyrase stabilizes Axin, leading to the formation of the β-catenin destruction complex, composed of GSK3, Axin and adenomatous polyposis coli (APC) (Huang et al., 2009). […] EpiSCs cultured in CHIR/XAV could be routinely passaged by single-cell dissociation and replating onto gelatin-coated dishes, and could be cryo-preserved and recovered at high efficiency by standard techniques.
final concentrations: CHIR99021 (3 μM), PD0325901 (1 μM), XAV939 (Sigma, 2 μM), IWR-1 (Sigma, 2.5 μM), IWP-2 (Stemgent, 2.5 μM), Pyrvinium (Sigma, 100 nM), recombinant human FGF2 (PeproTech, 10 ng/ml), and recombinant human activin A (PeproTech, 10 ng/ml). CHIR99021 and PD0325901 were synthesized in the Division of Signal Transduction Therapy, University of Dundee, UK.
The basal medium for mouse EpiSC culture is the conventional mouse ESC medium, which consists of GMEM (Sigma) supplemented with 10% fetal bovine serum (FBS) (Hyclone), 2 mM L-glutamine (Invitrogen), 1 mM sodium pyruvate (Invitrogen), 1% nonessential amino acids (Invitrogen), and 0.1 mM (3-mercaptoethanol. Mouse EpiSCs were derived and maintained in the basal medium supplemented with FGF2/activin, CHIR/XAV, or CHIR/IWR-1. The basal medium for rat EpiSC culture is N2B27 (Tong et al., 2011), which was prepared by mixing 500 ml of DMEM/F12 (Invitrogen) with 500 ml of Neurobasal™ medium (Invitrogen), and adding 5 ml of N2 (Invitrogen), 10 ml of B27 (Invitrogen), 5 ml of Glutamax™ (Invitrogen), and 1 ml of 0.1 M β-mercaptoethanol (Sigma). The basal medium for human ESC culture consists of Knockout™ DMEM/F12 supplemented with 20% KSR (Invitrogen), 1% nonessential amino acids, 2 mM L-glutamine, and 0.1 mM (3-mercaptoethanol. Human ESCs were cultured in the basal medium supplemented with FGF2, CHIR/XAV, or CHIR/IWR-1.
Post-implantation epiblasts were isolated from mouse or rat embryos and dissociated into small clumps as previously described (Chenoweth and Tesar, 2010). Epiblast fragments were placed into 4-well plates pre-coated with 0.1% gelatin (for mouse epiblasts) or pre-seeded with γ-irradiated mouse embryonic fibroblasts (MEFs) (for rat epiblasts) and cultured in either the FGF2/activin or the CHIR/XAV conditions. Emerging EpiSCs were trypsinized and expanded every 2-3 days at a subculture ratio of 1:4. Animal experiments were performed according to the investigator's protocols approved by the University of Southern California Institutional Animal Care and Use Committee.

[2] = system: β-catenin/TCF-responsive TOPFlash reporter; assay: TOPFlash reporter assay in mouse EpiSCs; conditions: CD1 mouse EpiSCs, 12 hours, added to CHIR
Experimental: (§1) (A) TOPFlash™ assay in CD1 mouse EpiSCs treated with the indicated inhibitors for 12 hours. Data represent mean±s.d. of three biological replicates. (B) Representative phase contrast images of CD1 mouse EpiSCs cultured in the indicated conditions for 7 days. (C) Western blot analysis of CD1 mouse EpiSCs treated with the indicated inhibitors for 12 h. (D) qRT-PCR analysis of Axin1 and Axin2 mRNA levels in CD1 mouse EpiSCs stably transfected with Axin1 shRNA or Axin2 shRNA. Data represent mean±s.d. of three biological replicates. (E) Colony assay on CD1 mouse EpiSCs stably transfected with scramble, Axin1, or Axin2 shRNAs. Cells were plated onto a 6-well plate at a density of 5,000 cells/well and cultured in CHIR/IWR-1. Colonies were counted 7 days after plating. Data represent the total combined numbers of colonies from two independent experiments in which each shRNA-transfected group was cultured in one well of a 6-well plate. (F) Representative phase contrast images of CD 1 mouse EpiSCs stably transfected with the indicated shRNAs and cultured in CHIR/IWR-1 for 7 days. (G) Western blot analysis of CD1 mouse EpiSCs overexpressing Flag-tagged Axin1 or Axin2. (H) Representative phase contrast images of CD1 mouse EpiSCs overexpressing Axin1 or Axin2 and cultured in CHIR for 7 days. Axin2-overexpressing EpiSCs could be continually passaged in CHIR alone. Scale bars, 50 μm (B, F and H)
Next, we investigated the mechanism by which CHIR/XAV promotes EpiSC self-renewal. By inhibiting GSK3 phosphorylation of β-catenin, CHIR stabilizes β-catenin, which then trans-locates to the nucleus and forms complexes with DNA-binding proteins, including TCFs, to activate transcription (Logan and Nusse, 2004). […]
(§2) For quantifying relative Oct3/4 enhancer activities, pGL3-Oct4 DE and pGL3-Oct4 PE plasmids (gifts from Hans Schöler's lab) were co-transfected with the Renilla vector, using the Amaxa™ Transfection Kit (Lonza). […] For quantifying relative β-catenin/Tcf transcriptional activity, pGL2-SuperTOP™ plasmid (gift from Randall Moon) was co-transfected with the Renilla vector and assayed accordingly.

[3] = system: Axin1; assay: Western blot of Axin1 in mouse EpiSCs; conditions: CD1 mouse EpiSCs treated 12 h
Experimental: as §1
Next, we investigated the mechanism by which CHIR/XAV promotes EpiSC self-renewal. By inhibiting GSK3 phosphorylation of β-catenin, CHIR stabilizes β-catenin, which then trans-locates to the nucleus and forms complexes with DNA-binding proteins, including TCFs, to activate transcription (Logan and Nusse, 2004). […] Axin has two isoforms, Axin1 and Axin2. […] The expression level of Axin2, but not Axin1, was also elevated by CHIR treatment (FIG. 4C), an outcome consistent with previous findings that Axin2 is a direct downstream target of Wnt/β-catenin signaling (Jho et al., 2002). […]

[4] = system: Axin2; assay: Western blot of Axin2 in mouse EpiSCs; conditions: CD1 mouse EpiSCs treated 12 h
[5] = system: β-catenin/TCF-responsive TOPFlash reporter; assay: TOPFlash reporter assay in H9 human ESCs; conditions: 24 h, added to CHIR
Experimental: (A) TOPFlash™ assay in H9 human ESCs subjected to the indicated treatments for 24 h. Data represent mean±s.d. of three biological replicates. (B) Representative phase contrast and alkaline phosphatase (AP) staining images of H9 human ESCs cultured in the indicated conditions for 3 passages. (C) Phase contrast images of H9 human ESCs cultured in CHIR/XAV or CHIR/IWR-1 for 11 passages. (D) Colony forming efficiency assay of H9 human ESCs cultured in FGF2 or CHIR/IWR-1 conditions. Data represent mean±s.d. of three biological replicates. Right panel: a representative image showing AP staining of colonies formed from H9 human ESCs cultured in either FGF2 or CHIR/IWR-1 condition. (E) Human ESCs cultured in CHIR/IWR-1 for 11 passages were immunostained with the indicated antibodies. (F) Embryoid bodies (EBs) were generated from H9 human ESCs cultured in CHIR/IWR-1 for 11 passages. The outgrowths of EBs were immunostained with the indicated antibodies. (G) H&E staining of teratomas generated from H9 ESCs cultured in CHIR/IWR-1 for 20 passages. (H) Western blot analysis of Axin1 and Axin2 expression in HES3 human ESCs treated with the indicated cytokines/inhibitors for 24 h. (I) Immunofluorescence images of H9 human ESCs (passage 5 in CHIR) overexpressing Flag-tagged Axin2. (J) Representative phase contrast and immunofluorescence images of HES2 human ESCs overexpressing ΔNβ-catenin-ERT2 at passage 5 in basal medium only. These cells were cultured in basal medium only for more than 10 passages and remained morphologically undifferentiated. (K) Phase contrast images of HES2 human ESCs overexpressing ΔNβ-catenin (left panel, passage 2 in basal medium/FGF2) or ΔNβ-catenin/A295W/I296W mutant (right panel, passage 5 in basal medium only). Scale bars, 50 μm (B, C, E-G, and I-K). (L) Model of mouse EpiSC and human ESC self-renewal mediated by β-catenin. In the absence of Wnt or GSK3 inhibitor, a β-catenin destruction complex, containing Axin1, GSK3, and APC is formed, leading to the degradation of β-catenin and differentiation (left). In the presence of Wnt or GSK3 inhibitor, β-catenin is stabilized and can initiate cellular responses related to both self-renewal and differentiation. Stabilized β-catenin induces differentiation when it translocates into the nucleus and binds TCFs to activate downstream targets (middle). Addition of XAV or IWR-1 stabilizes Axin2. […]
as §2

[6] = system: Axin1; assay: Western blot of Axin1 in human ESCs; conditions: human ESCs treated 24 h
Experimental: (A) TOPFlash™ assay in H9 human ESCs subjected to the indicated treatments for 24 h. Data represent mean±s.d. of three biological replicates. (B) Representative phase contrast and alkaline phosphatase (AP) staining images of H9 human ESCs cultured in the indicated conditions for 3 passages. (C) Phase contrast images of H9 human ESCs cultured in CHIR/XAV or CHIR/IWR-1 for 11 passages. (D) Colony forming efficiency assay of H9 human ESCs cultured in FGF2 or CHIR/IWR-1 conditions. Data represent mean±s.d. of three biological replicates. Right panel: a representative image showing AP staining of colonies formed from H9 human ESCs cultured in either FGF2 or CHIR/IWR-1 condition. (E) Human ESCs cultured in CHIR/IWR-1 for 11 passages were immunostained with the indicated antibodies. (F) Embryoid bodies (EBs) were generated from H9 human ESCs cultured in CHIR/IWR-1 for 11 passages. The outgrowths of EBs were immunostained with the indicated antibodies. (G) H&E staining of teratomas generated from H9 ESCs cultured in CHIR/IWR-1 for 20 passages. (H) Western blot analysis of Axin1 and Axin2 expression in HES3 human ESCs treated with the indicated cytokines/inhibitors for 24 h. (I) Immunofluorescence images of H9 human ESCs (passage 5 in CHIR) overexpressing Flag-tagged Axin2. […]

[7] = system: Axin2; assay: Western blot of Axin2 in human ESCs; conditions: human ESCs treated 24 h
[8] = system: β-catenin-TCF transcriptional activity; assay: β-catenin-TCF transcriptional activity induced by CHIR; conditions: data not shown
Description: The role of β-catenin in human ESC self-renewal has been controversial. […] Our finding that activation of β-catenin can promote human ESC self-renewal or differentiation, and that the respective outcome is dictated by whether β-catenin translocates into the nucleus, provides a rational explanation for earlier, seemingly paradoxical results. […] Some of the contradicted results on the role of β-catenin in human ESC self-renewal, therefore, might be attributable to variations in the subcellular localization of β-catenin under different culture conditions.

Cc1cc(/C=C/c2ccc3cc(N(C)C)ccc3[n+]2C)c(C)n1-c1ccccc1 [Pyrvinium]
EpiSC self-renewal / maintenance of undifferentiated state [1]: unable to support EpiSC self-renewal

O=C(Nc1cccc2cccnc12)c1ccc(N2C(=O)[C@@H]3[C@H](C2=O)[C@@H]2C=C[C@H]3C2)cc1 [IWR-1, 4-(1,3,3a,4,7,7a-Hexahydro-1,3-dioxo-4,7-methano-2H-isoindol-2-yl)-N-8-quinolinyl-Benzamide]
effect on TOPFlash activity induced by CHIR [2]: blocked TOPFlash™ reporter activity induced by CHIR | amount of Axin1 protein [3]: significantly increased | amount of Axin2 protein [4]: significantly increased | effect on TOPFlash activity induced by CHIR [5]: abolished this TOPFlash™ activity | amount of Axin1 protein [6]: significantly increased | amount of Axin2 protein [7]: significantly increased

Cc1ccc2nc(NC(=O)CSc3nc4c(c(=O)n3-c3ccccc3)SCC4)sc2c1 [IWP-2]
EpiSC self-renewal / maintenance of undifferentiated state [1]: unable to support EpiSC self-renewal | effect on TOPFlash activity induced by CHIR [5]: only partially suppressed

4-hydroxytamoxifen [4-OHT]
differentiation of ΔNβ-catenin-ERT2-overexpressing EpiSCs ([1]; 1 μM 4-OHT, even in the presence of IWR-1): resulted in rapid differentiation

bovine serum albumin: bovine serum albumin
effect on β-catenin-TCF transcriptional activity induced by CHIR [8]: partially block
